Measured values published in patent publication US12581252B2, “Substituted pyrrolo[3,4-b]pyridines as PI3K-α inhibitors” (Relay Therapeutics, Inc., priority 2020, dated 2026).
pIC50: −log10 of the molar value.

Molecular target: H1047R PIK3CA enzyme (Homo sapiens, UniProt P42336, H1047R)
Assay: ADP-Glo Biochemical PIK3CA Kinase Assay

H1047R PIK3CA enzyme, sequence (P42336 whole entry H1047R): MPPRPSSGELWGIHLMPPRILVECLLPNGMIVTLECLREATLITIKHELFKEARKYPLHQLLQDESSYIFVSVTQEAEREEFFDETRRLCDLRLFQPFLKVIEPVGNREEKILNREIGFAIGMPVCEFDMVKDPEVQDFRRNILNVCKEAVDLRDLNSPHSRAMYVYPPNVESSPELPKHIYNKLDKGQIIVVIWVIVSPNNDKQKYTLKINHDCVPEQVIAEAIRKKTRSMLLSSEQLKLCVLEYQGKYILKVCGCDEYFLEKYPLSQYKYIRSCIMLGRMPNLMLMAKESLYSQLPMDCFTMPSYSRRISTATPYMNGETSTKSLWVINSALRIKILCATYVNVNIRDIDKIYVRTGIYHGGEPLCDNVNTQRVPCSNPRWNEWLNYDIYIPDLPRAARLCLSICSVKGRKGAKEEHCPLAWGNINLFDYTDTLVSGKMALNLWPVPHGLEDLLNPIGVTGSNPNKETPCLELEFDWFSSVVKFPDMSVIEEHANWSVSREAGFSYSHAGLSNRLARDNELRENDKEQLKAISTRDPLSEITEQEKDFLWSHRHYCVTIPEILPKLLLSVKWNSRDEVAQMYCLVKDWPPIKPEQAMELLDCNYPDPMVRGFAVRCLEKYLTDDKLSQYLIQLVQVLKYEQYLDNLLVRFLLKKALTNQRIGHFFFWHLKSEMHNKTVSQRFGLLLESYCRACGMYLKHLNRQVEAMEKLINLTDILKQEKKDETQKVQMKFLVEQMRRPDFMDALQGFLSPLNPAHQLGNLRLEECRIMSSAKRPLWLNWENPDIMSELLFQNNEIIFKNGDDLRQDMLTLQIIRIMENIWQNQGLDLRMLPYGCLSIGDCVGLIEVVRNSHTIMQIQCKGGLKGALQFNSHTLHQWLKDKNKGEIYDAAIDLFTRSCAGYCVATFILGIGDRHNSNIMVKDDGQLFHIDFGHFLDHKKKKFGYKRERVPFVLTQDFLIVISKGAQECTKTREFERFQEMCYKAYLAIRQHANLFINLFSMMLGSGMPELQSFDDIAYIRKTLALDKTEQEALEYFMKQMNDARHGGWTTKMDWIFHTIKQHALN
H1047R PIK3CA enzyme, sequence (P27986 whole entry partner): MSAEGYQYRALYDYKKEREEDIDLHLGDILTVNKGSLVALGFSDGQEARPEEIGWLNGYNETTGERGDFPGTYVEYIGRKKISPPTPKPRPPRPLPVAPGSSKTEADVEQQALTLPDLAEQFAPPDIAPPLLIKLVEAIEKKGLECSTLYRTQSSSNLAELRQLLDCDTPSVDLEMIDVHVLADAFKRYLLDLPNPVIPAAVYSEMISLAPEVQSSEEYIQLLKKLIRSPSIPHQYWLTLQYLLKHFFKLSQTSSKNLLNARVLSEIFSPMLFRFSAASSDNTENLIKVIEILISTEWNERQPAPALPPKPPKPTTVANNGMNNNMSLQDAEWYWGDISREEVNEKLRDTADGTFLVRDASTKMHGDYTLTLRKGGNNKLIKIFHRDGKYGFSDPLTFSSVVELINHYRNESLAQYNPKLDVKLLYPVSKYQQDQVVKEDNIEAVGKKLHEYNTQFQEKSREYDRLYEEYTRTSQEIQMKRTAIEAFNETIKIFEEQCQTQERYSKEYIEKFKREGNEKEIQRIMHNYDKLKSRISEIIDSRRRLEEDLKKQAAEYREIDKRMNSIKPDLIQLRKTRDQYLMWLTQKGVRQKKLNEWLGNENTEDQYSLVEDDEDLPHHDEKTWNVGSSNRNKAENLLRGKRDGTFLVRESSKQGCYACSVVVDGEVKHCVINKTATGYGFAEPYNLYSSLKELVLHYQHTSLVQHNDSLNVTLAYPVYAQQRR

Structure (SMILES)	pIC50
Cc1ncccc1-c1cc(NC(=O)c2cc(F)cc(C(F)(F)F)c2)c2c(c1)C(=O)NC2c1cc(F)ccc1Cl (stereo not drawn) [Compound I-1152]	≥ 7.00
O=C(Nc1cc(-c2cn3ccnc3cn2)cc2c1[C@@H](c1cc(F)ccc1Cl)NC2=O)c1cc(F)cc(C(F)(F)F)c1 [Compound I-1329]	5.00 to 6.00
CC(C)n1cc(-c2cc(NC(=O)c3cc(F)cc(C(F)(F)F)c3)c3c(n2)C(=O)N[C@H]3c2cc(F)ccc2Cl)ccc1=O [Compound I-651]	≥ 7.00
O=C1NC(c2cccc(F)c2F)c2c(NC(=O)c3csc4ccccc34)ccnc21 (stereo not drawn) [Compound I-15, N-(5-(2,3-Difluorophenyl)-7-oxo-6,7-dihydro-5H-pyrrolo[3,4-b]pyridin-4-yl)benzo[b]thiophene-3-carboxamide]	6.30 to 7.00
Nc1cc(-c2cc(NC(=O)c3cc(F)cc(C(F)(F)F)c3)c3c(c2)C(=O)NC3c2cc(F)ccc2Cl)ncn1 (stereo not drawn) [Compound I-1089]	≥ 7.00
O=C(Nc1cc(Br)cc2c1C(c1cc(F)ccc1Cl)NC2=O)c1ccc(F)c(Cl)c1 (stereo not drawn) [Compound I-565]	6.00 to 6.30
O=C(O)c1cc(F)cc(C(=O)Nc2cc(Br)cc3c2C(c2cc(F)ccc2Cl)NC3=O)c1 (stereo not drawn) [Compound I-954]	4.00 to 5.00
O=C(Nc1cc(NC(=O)C2COC2)cc2c1C(c1cc(F)ccc1Cl)NC2=O)c1cc(F)cc(C(F)(F)F)c1 (stereo not drawn) [Compound I-344]	≥ 7.00
CC(C)(O)c1cc(NC(=O)c2nsc3ccccc23)c2c(c1)C(=O)N[C@@H]2c1cc(F)ccc1Cl [Compound I-191]	6.00 to 6.30
COc1cc(C(=O)Nc2cc(Br)cc3c2C(c2cc(F)ccc2Cl)NC3=O)ccc1F (stereo not drawn) [Compound I-559]	5.00 to 6.00
O=C(Nc1cc(-c2cnn(-c3cscn3)c2)cc2c1C(c1cc(F)ccc1Cl)NC2=O)c1cc(F)cc(C(F)(F)F)c1 (stereo not drawn) [Compound I-1571]	≥ 7.00
O=C(Nc1cc(-c2ccc3nc(C(F)F)cn3c2)cc2c1C(c1cc(F)ccc1Cl)NC2=O)c1cc(F)cc(C(F)(F)F)c1 (stereo not drawn) [Compound I-1864]	≥ 7.00
O=C(Nc1cc(C2CNC2)cc2c1C(c1cc(F)ccc1Cl)NC2=O)c1cc(F)cc(C(F)(F)F)c1 (stereo not drawn) [Compound I-654]	≥ 7.00

Second part, the compound after the results:

pIC50	Structure (SMILES)
5.00 to 6.00	O=C1N[C@@H](c2cc(F)ccc2Cl)c2c(NC(=O)N3C[C@](O)(C(F)(F)F)c4cc(F)ccc43)cc(-n3ccnn3)cc21 (single isomer, unassigned) [Compound I-2550]
4.00 to 5.00	C[C@H](O)c1cc(-c2ccc3ncnn3c2)cc2c1[C@@H](c1cc(F)ccc1Cl)NC2=O (single isomer, unassigned) [Compound I-2228]
5.00 to 6.00	O=C1N[C@H](c2cc(F)ccc2Cl)c2c(NC(=O)N3C[C@@](O)(C(F)(F)F)c4cc(F)ccc43)cc(Cl)cc21 (single isomer, unassigned) [Compound I-2510]
4.00 to 5.00	O=C(Nc1ccccc1)c1cccc2c1C(c1cc(F)ccc1Cl)NC2=O (stereo not drawn) [Compound I-2188]
6.00 to 6.30	N#CC1(n2cc(-c3cc(NC(=O)c4cc(F)cc(C(F)(F)F)c4)c4c(c3)C(=O)N[C@@H]4c3cc(F)ccc3Cl)cn2)CC1 [Compound I-1885]
4.00 to 5.00	CN1CCN(C(=O)Nc2cc(Br)cc3c2[C@@H](c2cc(F)ccc2Cl)NC3=O)CC1 (single isomer, unassigned) [Compound I-2245]
5.00 to 6.00	O=C(Nc1cccc2c1[C@H](C1CCCCC1)NC2=O)c1cc(F)cc(C(F)(F)F)c1 [Compound I-2052]
4.00 to 5.00	O=C1NC(c2cc(F)ccc2Cl)c2c1cc(-c1ccc3ncnn3c1)cc2C1=CCCNC1 (stereo not drawn) [Compound I-1998]
5.00 to 6.00	O=C(Nc1cccc2c1[C@H](C13C[C@H]4C[C@@H](C1)C[C@@H](C3)C4)NC2=O)c1cc(F)cc(C(F)(F)F)c1 (racemic) [Compound I-2075]
4.00 to 5.00	O=C(Nc1cccc2c1[C@H](C1CCCC[C@@H]1O)NC2=O)c1cc(F)cc(C(F)(F)F)c1 (single isomer, unassigned) [Compound I-2110]
5.00 to 6.00	COc1ccc2c(c1)N(C(=O)Nc1cccc3c1C(c1cc(F)ccc1Cl)NC3=O)CC2 (stereo not drawn) [Compound I-2439]
